Reference: publication PMC10709440, “High-throughput ligand profile characterization in novel cell lines expressing seven heterologous insect olfactory receptors for the detection of volatile plant biomarkers” (Scientific Reports, 2023)
Where “and” joins values, the source holds several entries; their conditions need not be identical. Identical values can stand only once. Like-named read-outs stand apart in the source and are kept apart here.

Assays:
Drosophila OR71a = target: T1, Drosophila OR71a (Drosophila melanogaster, UniProt Q9VUK5); test: Calcium ion fluorescence (GCaMP6) assay, OR71a stable HEK293 cell line; format: cell-based; conditions: for activation at 1 µM / activation at 10 µM / activation at 100 µM: HEK293, read-out: OR71a response (VUAA1-normalized response); for Average response: VUAA1-normalized response, mean of biological replicates
T1 construct: expressed in transfected cells
T1 sequence (Q9VUK5 1-378): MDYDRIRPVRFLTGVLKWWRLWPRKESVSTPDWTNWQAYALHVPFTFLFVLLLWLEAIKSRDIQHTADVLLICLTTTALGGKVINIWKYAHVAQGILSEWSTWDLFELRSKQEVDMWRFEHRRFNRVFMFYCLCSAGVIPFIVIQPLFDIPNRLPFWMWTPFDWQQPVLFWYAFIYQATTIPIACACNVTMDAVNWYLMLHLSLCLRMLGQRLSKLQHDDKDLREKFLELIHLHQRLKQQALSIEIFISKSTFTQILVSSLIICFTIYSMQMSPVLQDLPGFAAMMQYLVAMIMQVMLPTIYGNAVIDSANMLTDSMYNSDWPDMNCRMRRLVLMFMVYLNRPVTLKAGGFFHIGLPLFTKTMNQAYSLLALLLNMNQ
T1 sequence (Q9VNB5 1-486 partner): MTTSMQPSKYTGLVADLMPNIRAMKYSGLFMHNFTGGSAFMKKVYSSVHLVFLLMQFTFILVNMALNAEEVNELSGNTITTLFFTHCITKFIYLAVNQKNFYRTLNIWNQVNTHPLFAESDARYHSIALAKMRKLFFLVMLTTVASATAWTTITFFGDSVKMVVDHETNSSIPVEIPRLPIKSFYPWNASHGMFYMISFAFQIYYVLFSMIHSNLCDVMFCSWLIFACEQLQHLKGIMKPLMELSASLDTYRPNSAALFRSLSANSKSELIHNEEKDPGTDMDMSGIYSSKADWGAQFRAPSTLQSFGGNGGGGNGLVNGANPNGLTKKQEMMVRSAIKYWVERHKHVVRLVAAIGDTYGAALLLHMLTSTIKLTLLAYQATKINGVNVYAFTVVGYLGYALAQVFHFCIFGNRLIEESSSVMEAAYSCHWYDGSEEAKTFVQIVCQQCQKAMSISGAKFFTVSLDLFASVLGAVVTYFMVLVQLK
Summary of the method: (§1)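 Responses are VUAA1-normalized ΔF: each VOC-evoked calcium signal, (FMAX−F0)/F0 over 30 s after injection, divided by the same line's mean 50 µM VUAA1 response. Cells were doxycycline-induced HEK293 with GCaMP6 and the cognate Drosophila OR, in HEPES buffer pH 7.3; ligands tested 0.01–100 μM.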

Drosophila OR13a = target: T2, Drosophila OR13a (Drosophila melanogaster, UniProt Q9VXL0); test: Calcium ion fluorescence (GCaMP6) assay, OR13a stable HEK293 cell line; format: cell-based; conditions: for dose-response, AVERAGE response: N 3
T2 construct: expressed in transfected cells
T2 sequence (Q9VXL0 1-418): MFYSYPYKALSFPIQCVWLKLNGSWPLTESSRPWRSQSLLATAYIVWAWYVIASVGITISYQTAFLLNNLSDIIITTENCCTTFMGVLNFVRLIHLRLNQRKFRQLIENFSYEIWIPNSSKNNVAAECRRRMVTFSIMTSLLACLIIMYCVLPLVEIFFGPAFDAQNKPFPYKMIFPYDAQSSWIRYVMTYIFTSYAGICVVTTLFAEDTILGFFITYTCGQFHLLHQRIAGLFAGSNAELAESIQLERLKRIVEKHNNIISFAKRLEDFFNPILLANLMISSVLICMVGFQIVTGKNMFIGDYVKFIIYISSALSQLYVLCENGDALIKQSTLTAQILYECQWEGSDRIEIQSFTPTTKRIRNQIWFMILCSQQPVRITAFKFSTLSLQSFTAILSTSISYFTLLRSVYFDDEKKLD
T2 sequence (Q9VNB5 1-486 partner): T1 sequence (Q9VNB5 1-486 partner)
Summary of the method: as §1

[1] = concentration 1, normalized fluorescence change, values below 0.05 threshold given as 0
[2] = concentration 10, normalized fluorescence change, values below 0.05 threshold given as 0
[3] = concentration 100, normalized fluorescence change, values below 0.05 threshold given as 0
[4] = HEK293, read-out: OR13a Average response (VUAA1-normalized), 1 μM VOC, 50 μM VUAA1 = 1, responses not exceeding 0.05 considered 0
[5] = HEK293, read-out: OR13a Average response (VUAA1-normalized), 10 μM VOC, 50 μM VUAA1 = 1, responses not exceeding 0.05 considered 0
[6] = HEK293, read-out: OR13a Average response (VUAA1-normalized), 100 μM VOC, 50 μM VUAA1 = 1, responses not exceeding 0.05 considered 0
[7] = HEK293, read-out: OR13a response (VUAA1-normalized response), VOC concentration 1 μM
[8] = HEK293, read-out: OR13a response (VUAA1-normalized response), VOC concentration 10 μM
[9] = HEK293, read-out: OR13a response (VUAA1-normalized response), VOC concentration 100 μM
[10] = the 13th table, VOC concentration 2.5
[11] = the 13th table, VOC concentration 5
[12] = the 13th table, VOC concentration 25
[13] = the 13th table, VOC concentration 50
[14] = the 13th table, VOC concentration 100
[15] = ligand concentration 1 (unit not given), threshold 0.05, below shown as 0
[16] = ligand concentration 10 (unit not given), threshold 0.05, below shown as 0
[17] = ligand concentration 100 (unit not given), threshold 0.05, below shown as 0

SMILES | activation at 1 µM (Drosophila OR71a) [%] | activation at 10 µM (Drosophila OR71a) [%] | activation at 100 µM (Drosophila OR71a) [%] | Average response (Drosophila OR71a; OR71a cell line, cc. 1 µM) | Average response (Drosophila OR71a; OR71a cell line, cc. 10 µM) | Average response (Drosophila OR71a; OR71a cell line, cc. 100 µM) | DF norm AVERAGE OR71a (Drosophila OR71a; [1]) | DF norm AVERAGE OR71a (Drosophila OR71a; [2]) | activation at 1 µM (Drosophila OR13a; [4]) [%] | activation at 10 µM (Drosophila OR13a; [5]) [%] | activation at 100 µM (Drosophila OR13a; [6]) [%] | activation at 1 µM (Drosophila OR13a; [7]) [%] | activation at 10 µM (Drosophila OR13a; [8]) [%] | activation at 100 µM (Drosophila OR13a; [9]) [%] | DF norm AVERAGE OR71a (Drosophila OR71a; [15]) | DF norm AVERAGE OR71a (Drosophila OR71a; [16]) | DF norm AVERAGE OR71a (Drosophila OR71a; [17]) | DF norm AVERAGE OR13a (Drosophila OR13a; [15]) | DF norm AVERAGE OR13a (Drosophila OR13a; [16]) | DF norm AVERAGE OR13a (Drosophila OR13a; [17]) | also measured
C=CC(O)C/C=C\CC (stereo not drawn) [(5Z)-octa-1,5-dien-3-ol] | 0 | 0 | 0 | 0.00 | 0.0228 | 0.00 | 0 | 0 | 0 | 15 | 37 | 0 | 15 | 37 | – | – | – | – | – | – | DF norm AVERAGE OR71a (Drosophila OR71a; [3]): 0; EC50 (Drosophila OR13a; EC50, fitted average curve, the 13th table, fit to the average curve, n 0.854956): 7.19 µM; EC50 (Drosophila OR13a; EC50, fitted parameter per biological replicate, the 13th table, OR13a D-R (5Z)-octa-1,5-dien-3-ol, individual replicate fits, MIN 0, n 1): 9.97 µM and 3 µM and 5.85 µM; EC50 (Drosophila OR13a; EC50, fitted parameter per biological replicate, the 13th table, individual replicate fits): 9.97 µM and 3 µM and 5.85 µM; DF norm AVERAGE OR13a (Drosophila OR13a; [1]): 0; DF norm AVERAGE OR13a (Drosophila OR13a; [2]): 0.1531; DF norm AVERAGE OR13a (Drosophila OR13a; [3]): 0.3701; dose-response, response per biological replicate (Drosophila OR13a; [10]): 0 and 0.07532 and 0.2134; dose-response, AVERAGE response (Drosophila OR13a; [10]): 0.09623; dose-response, response per biological replicate (Drosophila OR13a; [11]): 0.1122 and 0.07908 and 0.2962; dose-response, AVERAGE response (Drosophila OR13a; [11]): 0.1625; dose-response, response per biological replicate (Drosophila OR13a; [12]): 0.1336 and 0.1252 and 0.4462; dose-response, AVERAGE response (Drosophila OR13a; [12]): 0.235; dose-response, response per biological replicate (Drosophila OR13a; [13]): 0.1449 and 0.1487 and 0.5376; dose-response, AVERAGE response (Drosophila OR13a; [13]): 0.2771; dose-response, response per biological replicate (Drosophila OR13a; [14]): 0.2093 and 0.133 and 0.6441; dose-response, AVERAGE response (Drosophila OR13a; [14]): 0.3288; MAX, fitted average curve (Drosophila OR13a; the 13th table, fit to the average curve, n 0.854956): 0.3433; MAX, fitted parameter per biological replicate (Drosophila OR13a; the 13th table, individual replicate fits): 0.2031 and 0.1439 and 0.6228 and 0.37
CCCC(=O)OCC [ethyl butyrate] | 0 | 0 | 0 | 0.00 | 0.00 | 0.00 | – | – | 0 | 0 | 0 | 0 | 0 | 0 | 0 | 0 | 0 | 0 | 0 | 0 | –
Cc1cccc(O)c1 [3-methylphenol] | 0 | 0 | 0 | 0.03 | 0.0152 | 0.0133 | 0 | 0 | 0 | 0 | 1.35 | 0 | 0 | 0 | – | – | – | – | – | – | DF norm AVERAGE OR71a (Drosophila OR71a; [3]): 0; DF norm AVERAGE OR13a (Drosophila OR13a; [1]): 0; DF norm AVERAGE OR13a (Drosophila OR13a; [2]): 0; DF norm AVERAGE OR13a (Drosophila OR13a; [3]): 0
C=CCc1ccc(O)c(OC)c1 [eugenol] | 0 | 0 | 0 | 0.00 | 0.0465 | 0.0247 | – | – | 0 | 0 | 0 | 0 | 0 | 0 | 0 | 0 | 0 | 0 | 0 | 0 | –
C=C1CCC2(C(C)C)CC12 (stereo not drawn) [sabinene] | – | – | – | 0.00 | 0.00 | 0.0235 | – | – | 0 | 0 | 0 | – | – | – | 0 | 0 | 0 | 0 | 0 | 0 | OR71a response (VUAA1-normalized) at 1 μM (Drosophila OR71a; OR71a cell line, VOC concentration 1 μM): 0.00; OR71a response (VUAA1-normalized) at 10 μM (Drosophila OR71a; OR71a cell line, VOC concentration 10 μM): 0.00; OR71a response (VUAA1-normalized) at 100 μM (Drosophila OR71a; OR71a cell line, VOC concentration 100 μM): 0.00; OR13a response (VUAA1-normalized) at 1 μM (Drosophila OR13a; OR13a cell line, VOC concentration 1 μM): 0.00; OR13a response (VUAA1-normalized) at 10 μM (Drosophila OR13a; OR13a cell line, VOC concentration 10 μM): 0.00; OR13a response (VUAA1-normalized) at 100 μM (Drosophila OR13a; OR13a cell line, VOC concentration 100 μM): 0.00
CC(=O)OCCC(C)C [isopentyl acetate] | 0 | 0 | 0 | 0.0333 | 0.037 | 0.0218 | – | – | 3 | 4 | 0 | 0 | 0 | 0 | 0 | 0 | 0 | 0 | 0 | 0 | –
C=C1CC[C@H]2O[C@]2(C)CC[C@@H]2[C@@H]1CC2(C)C [(-)-caryophyllene oxide] | 0 | 0 | 7.44 | 0.00 | 0.00 | 0.0744 | 0 | 0 | 0 | 0 | 0 | 0 | 0 | 0 | – | – | – | – | – | – | DF norm AVERAGE OR71a (Drosophila OR71a; [3]): 0.07441; DF norm AVERAGE OR13a (Drosophila OR13a; [1]): 0; DF norm AVERAGE OR13a (Drosophila OR13a; [2]): 0; DF norm AVERAGE OR13a (Drosophila OR13a; [3]): 0
CCCCCCCCCC=O [decanal] | 0 | 0 | 0 | 0.00 | 0.00 | 0.0139 | – | – | 0 | 0 | 0 | 0 | 0 | 0 | 0 | 0 | 0 | 0 | 0 | 0 | –
